Peptide text beside a SMILES is read from it. * marks the point of attachment. Biotin = O=C1N[C@H]2[C@H](CS[C@H]2CCCCC(=O)*)N1; Cam = NC(=O)C*
How the values were obtained:
[1] = target: T1, NRP1 (Homo sapiens, UniProt O14786); assay: Bio-layer interferometry (Octet) binding of Cltx and derived peptides to NRP1; conditions: BLI; biotinylated peptides on streptavidin biosensors, NRP1 0 to 1750 nM; mean of 2 to 6 independent experiments; ns = no significant binding
T1 construct: purchased Sino Biological Inc. 10011-H02H
T1 sequence (O14786 22-644 isoform O14786-2 limits assumed): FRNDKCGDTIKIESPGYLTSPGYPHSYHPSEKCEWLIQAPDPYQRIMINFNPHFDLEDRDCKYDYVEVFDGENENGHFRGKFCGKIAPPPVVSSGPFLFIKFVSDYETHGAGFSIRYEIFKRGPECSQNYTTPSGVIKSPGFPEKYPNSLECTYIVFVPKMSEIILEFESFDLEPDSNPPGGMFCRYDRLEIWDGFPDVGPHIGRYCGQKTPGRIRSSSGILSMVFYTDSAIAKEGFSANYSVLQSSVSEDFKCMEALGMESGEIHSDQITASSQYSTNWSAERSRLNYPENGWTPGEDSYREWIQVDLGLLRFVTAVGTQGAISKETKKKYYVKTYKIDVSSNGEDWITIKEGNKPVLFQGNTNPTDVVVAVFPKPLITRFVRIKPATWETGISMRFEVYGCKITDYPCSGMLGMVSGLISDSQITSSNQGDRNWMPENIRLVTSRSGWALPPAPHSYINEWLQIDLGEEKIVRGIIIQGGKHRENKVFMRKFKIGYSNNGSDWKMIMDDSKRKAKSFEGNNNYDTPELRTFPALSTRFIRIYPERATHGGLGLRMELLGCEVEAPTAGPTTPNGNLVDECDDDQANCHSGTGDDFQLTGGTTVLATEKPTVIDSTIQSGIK
Description: Octet binding studies required biotinylation of Cltx and derived peptides for loading onto streptavidin biosensors. Trypsin, (Promega Cat# V5280) (~ 40 μg/mL) was added to Cltx biotinylated at K27 or N-terminus (10 mg/mL) and incubated for 24 h at 37 °C, pH 8.5. The resulting peptides were separated by preparative HPLC and peptide fragments were characterized by MALDI. Small linear Cltx-derived peptides were also synthesized by routine methods and were biotinylated at the N-terminus. In some cases, peptides were reduced with TCEP at pH 8 and the cysteine residues were capped using iodoacetamide.
Assessment of binding between NRP1and Cltx was performed by Bio-Layer Interferometry (BLI) using the Octet Red96 System (ForteBio, Pall). Cltx and derived fragments were captured on streptavidin biosensors (Cat# 18–5020) under approximately equivalent loading conditions; sensors were then quenched with EZ-Link Biocytin and washed in assay buffer (PBS, 1% BSA, 0.05% Tween20).

[2] = test system: crayfish; assay: Crayfish bioassay (neurotoxicity, paralysis); assay type: in vivo; conditions: 20 µg per injection, n=8 crayfish; Kaplan-Meier analysis
Description: The crayfish assay to determine bioactivity of Cltx was performed at ABC Labs (Columbia, MO, now EAG Labs) using an SOP generated by TransMolecular Inc. Cltx peptide (20 μg) in sterile water was injected through the ventral surface of the thorax in the region of the sub-esophageal ganglion of crayfish which were then subjected to physical challenge defined as multiple, continuous, gentle prods in random parts of the body from head to tail. The animal’s response is based on avoidance, ability to right itself, and clasping with chelae in a defensive manner. Time from injection to total incapacitation was recorded; total incapacitation is defined as the time when the tested crayfish is not responsive when physically challenged.

[3] = target: T1, NRP1; assay: BLI competition with biotinylated VEGF165 for binding to NRP1; conditions: NRP1 fixed at 390 nM, Cltx peptide 50 to 800 μmol/L
[4] = target: T2, Neuropilin-1 (NRP1) (UniProt O14786 22-856); assay: BLI; affinity of NRP1 for VEGF given beside the peptides of Table 1; set-up for VEGF not told separately; conditions: both partners purified
T2 construct: The R&D Systems NRP1 Phe22-Lys644 (Cat# 3870-N1) was only a control in Western blots
T2 sequence (looked up): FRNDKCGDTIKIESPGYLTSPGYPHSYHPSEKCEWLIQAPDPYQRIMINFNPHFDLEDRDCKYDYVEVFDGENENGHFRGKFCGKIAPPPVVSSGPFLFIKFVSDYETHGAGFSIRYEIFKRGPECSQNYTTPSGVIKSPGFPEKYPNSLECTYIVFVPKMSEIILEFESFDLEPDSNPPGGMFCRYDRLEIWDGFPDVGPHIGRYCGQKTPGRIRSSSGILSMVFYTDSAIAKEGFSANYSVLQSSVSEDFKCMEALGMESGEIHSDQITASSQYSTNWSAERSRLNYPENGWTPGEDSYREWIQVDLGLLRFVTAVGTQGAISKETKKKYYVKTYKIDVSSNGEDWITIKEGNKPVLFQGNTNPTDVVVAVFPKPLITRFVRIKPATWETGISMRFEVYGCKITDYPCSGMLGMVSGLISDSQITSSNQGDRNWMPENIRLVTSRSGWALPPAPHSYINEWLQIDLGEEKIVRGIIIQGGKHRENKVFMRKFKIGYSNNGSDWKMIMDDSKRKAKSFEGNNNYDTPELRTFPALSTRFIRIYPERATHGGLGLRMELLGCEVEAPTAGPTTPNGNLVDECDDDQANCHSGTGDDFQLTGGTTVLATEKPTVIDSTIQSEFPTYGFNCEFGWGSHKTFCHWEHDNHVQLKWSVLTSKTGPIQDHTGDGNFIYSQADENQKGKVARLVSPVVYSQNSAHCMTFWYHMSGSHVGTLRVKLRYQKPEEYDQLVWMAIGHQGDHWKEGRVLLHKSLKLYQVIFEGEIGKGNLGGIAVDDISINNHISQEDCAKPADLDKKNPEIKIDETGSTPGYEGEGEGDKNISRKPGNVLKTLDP

Molecule: CSCC[C@H](NC(=O)CCCC[C@@H]1SC[C@@H]2NC(=O)N[C@@H]21)C(=O)N[C@H]1CSSC[C@@H](C(=O)N[C@@H](Cc2ccccc2)C(=O)N[C@H](C(=O)N[C@H](C(=O)N[C@@H](CC(=O)O)C(=O)N[C@@H](Cc2c[nH]cn2)C(=O)N[C@@H](CCC(N)=O)C(=O)N[C@@H](CCSC)C(=O)N[C@@H](C)C(=O)N[C@@H](CCCNC(=N)N)C(=O)O)[C@@H](C)O)[C@@H](C)O)NC(=O)[C@@H]2CCCN2C(=O)[C@H](CCSC)NC1=O [C00003]
- Kd [1]: 167 nM

Molecule: Chlorotoxin [Cltx-CONH2]
- Median time to paralysis (total incapacitation) [2]: 25 s
- Competition with biotinylated VEGF for binding to NRP1 [3]: not

Molecule: CC(C)C[C@H](NC(=O)[C@H](CSCC(N)=O)NC(=O)CCCC[C@@H]1SC[C@@H]2NC(=O)N[C@@H]21)C(=O)N[C@@H](CSCC(N)=O)C(=O)N[C@@H](CCCNC(=N)N)C(=O)O [C00011] (Biotin-C(Cam)LC(Cam)R-OH)
- Kd [1]: 335 nM

Molecule: CC(C)C[C@H](NC(=O)[C@H](CSCC(N)=O)NC(=O)[C@H](CCC(N)=O)NC(=O)[C@@H]1CCCN1C(=O)CNC(=O)[C@H](Cc1ccc(O)cc1)NC(=O)CCCC[C@@H]1SC[C@@H]2NC(=O)N[C@@H]21)C(=O)N[C@@H](CSCC(N)=O)C(=O)N[C@@H](CCCNC(=N)N)C(=O)O [C00008] (Biotin-YGPQC(Cam)LC(Cam)R-OH)
- Kd [1]: 297 nM

B1: Biotinylated VEGF165 (ligand)
chain: APMAEGGGQNHHEVVKFMDVYQRSYCHPIETLVDIFQEYPDEIEYIFKPSCVPLMRCGGCCNDEGLECVPTEESNITMQIMRIKPHQGQHIGEMSFLQHNKCECRPKKDRARQENPCGPCSERRKHLFVQDPQTCKCSCKNTDSRCKARQLELNERTCRCDKPRR
modifications: biotin
- Kd [4]: ~50 nM
